Measured values from article PMC12224939, “Trypstatin as a Novel TMPRSS2 Inhibitor with Broad‐Spectrum Efficacy against Corona and Influenza Viruses” (Advanced Science, 2025).
Where a name gives a salt, the structure may show the parent alone. Read-outs that look alike come from different tables or passages of the source. Bridge positions count the residues as written; N and C are the ends. Ends that are not written are not given here.

Assays:
[1] = system: Influenza B/Ned/537/05 (Ned05; B/Yamagata lineage); assay: Influenza virus inhibition assay in Calu-3 cells, IBV; format: cell-based, influenza B virus
[2] = system: Influenza A/Virginia/ATCC3/2009 (Virg09; A/H1N1); assay: Influenza virus inhibition assay in Calu-3 cells, IAV H1N1; format: cell-based, influenza A virus
[3] = system: Influenza A/Victoria/361/11 (Vict11; A/H3N2); assay: Influenza virus inhibition assay in Calu-3 cells, IAV H3N2; format: cell-based, influenza A virus
SARS-CoV-2 Omicron BA.1 = assay: microbe, parasite or virus in culture; format: cell-based
TMPRSS13 = molecular target: T1, TMPRSS13 (Homo sapiens, UniProt Q9BYE2); assay: Cellular TMPRSS13 activity assay in transfected HEK293T cells; format: cell-based
T1 construct: encoding the respective transmembrane serine protease per well; host or cells: HEK293T
Method: (§1) Twenty thousand HEK293T cells were seeded in a 96‐well flat bottom plate. The next day, cells were transfected with 100 ng of an expression plasmid (Backbone: Twist Bioscience, EF1alpha mammalian expression vector) encoding the respective transmembrane serine protease per well using LT1 transfection reagent (TMPRSS2 human NCBI RefSeq: NP_005647.3; TMPRSS2 Syrian gold hamster NCBI RefSeq: XP_012971683.1; TMPRSS11D NCBI RefSeq: NP_004253.1; TMPRSS13 NCBI RefSeq: NP_001070731.1). In short, plasmid DNA was mixed in a 1:3 ratio with LT1 in a serum‐free medium and incubated for 20 min before the mixture was applied dropwise onto the cells. Sixteen hours post‐transfection, the medium was replaced by a serum‐free medium, and cells were treated with serial dilution of compounds in PBS. After 15 min of incubation at 37 °C, 100 µM of respective protease‐specific substrate (TMPRSS2: Boc‐QAR‐AMC, Bachem # 4017019; TMPRSS11D: Boc‐FSR‐AMC, Bachem # 4012340; TMPRSS13: Pyr‐RTKR‐AMC, Bachem #4018149) was added and incubated for 2 h at 37 °C. Fluorescence intensity was recorded at an excitation wavelength of 380 nm and emission wavelength of 460 nm in a Synergy H1 microplate reader (BioTek) with Gen 5 3.04 software. Values were background corrected for non‐transfected HEK293T‐cells.

[4] = cited from earlier work
TMPRSS11D = molecular target: T2, TMPRSS11D (Homo sapiens, UniProt O60235); assay: Cellular TMPRSS11D activity assay in transfected HEK293T cells; format: cell-based
T2 construct: encoding the respective transmembrane serine protease per well; host or cells: HEK293T
Method: as §1

Kallikrein 5 = molecular target: T3, Kallikrein 5 (Homo sapiens, UniProt Q9Y337); assay: Recombinant kallikrein 5 activity assay; format: biochemical; settings: recombinant enzyme
T3 construct: purchased R&D 1108
Method: Kallikrein 5 activity was measured by mixing 25 µL of compound with 25 µL of 2 µg mL^−1 of recombinant enzyme (R&D #1108) in assay buffer (100 mM NaH2PO4, pH 8) for 15 min at 37 °C before the addition of 50 µL of BOC‐Val‐Pro‐Arg‐AMC substrate (R&D #ES011). The mixture was incubated for 5 min at 37 °C before fluorescence intensity was measured at an excitation wavelength of 380 nm and emission wavelength of 460 nm in a SynergyTM H1 microplate reader (BioTek) with Gen5 3.04 software.

TMPRSS14 (Matriptase) = molecular target: T4, TMPRSS14 (Matriptase) (Homo sapiens, UniProt Q9Y5Y6); assay: Recombinant TMPRSS14 activity assay; format: biochemical; settings: recombinant enzyme
T4 construct: purchased 3946
Method: In the next step, 50 µL of 20 µM BOC‐Gln‐Ala‐Arg‐AMC protease substrate (Bachem #4017019) in the case of TMPRSS2 and TMPRSS14 or 50 µL of 150 µM BOC‐Gln‐Arg‐Arg‐AMC (PeptaNova) in the case of TMPRSS1 was added and incubated for 2 h for TMPRSS2, or 5 mins in the case of TMPRSS1/14 at 37 °C. Fluorescence intensity was measured after 2 h at an excitation wavelength of 380 nm and emission wavelength of 460 nm in a SynergyTM H1 microplate reader (BioTek) with Gen5 3.04 software. […] Assays were performed in a total volume of 100 µL in quadruplicate wells of a 96 Nunc well plate (Thermo Scientific #10174221) with a final TMPRSS2 concentration of 20 nM. Initial velocities were measured in 50 s intervals for 15 min with excitation of 360 nm and emission of 460 nm in a SynergyTM H1 microplate reader. K m and V max were calculated from Michaelis–Menten plots using GraphPadPrism. The inhibitory constant K i was calculated from the IC50 values according to the Cheng–Prusoff equation (K i = IC50/(1 + [S]/K m)) for competitive reversible inhibitors.^[ [91] ^]

hCoV-NL63 = assay: HCoV-NL63 inhibition assay in Caco-2 cells; format: cell-based
Method: Caco‐2 cells (25 000) were seeded in a 96‐well flat‐bottom plate before the following day, cells were treated for 30 min with serial dilutions of compounds in PBS and the cells were infected with a MOI of 0.018 and incubated at 33 °C. At 72 hpi, cells were detached and fixed in a final concentration of 4% PFA for 30 min. Subsequently, cells were washed with PBS and stained for flow cytometry analysis with anti‐NL63‐nucleocapsid antibody (SinoBiological #40641‐T62) diluted 1:5000 in Buffer B (Fix and Perm, MuBio Nordic) for 40 min at 4 °C. Cells were washed twice with FACS buffer (1% FCS in PBS) and incubated with Alexa Flour 647 labeled anti‐rabbit antibody (Cell Signaling #4414) diluted 1:5000 in FACS buffer for 30 min at 4 °C before the cells were washed again twice with FACS buffer. Analysis was performed using a CytoflexLX flow cytometer (Beckmann Coulter) with CytExpert 2.3 software.

[5] = system: lentiviral pseudoparticles harboring VSV-G glycoprotein; format: cell-based
[6] = Table S1, read-out: anti-viral IC50 (±SEM), IBV
[7] = Table S1, read-out: anti-viral IC50 (±SEM), IAV H1N1
[8] = Human coronavirus NL63, Caco-2, Table S1, read-out: anti-viral IC50 (±SEM), hCoV-NL63

T2 sequence (O60235 whole entry): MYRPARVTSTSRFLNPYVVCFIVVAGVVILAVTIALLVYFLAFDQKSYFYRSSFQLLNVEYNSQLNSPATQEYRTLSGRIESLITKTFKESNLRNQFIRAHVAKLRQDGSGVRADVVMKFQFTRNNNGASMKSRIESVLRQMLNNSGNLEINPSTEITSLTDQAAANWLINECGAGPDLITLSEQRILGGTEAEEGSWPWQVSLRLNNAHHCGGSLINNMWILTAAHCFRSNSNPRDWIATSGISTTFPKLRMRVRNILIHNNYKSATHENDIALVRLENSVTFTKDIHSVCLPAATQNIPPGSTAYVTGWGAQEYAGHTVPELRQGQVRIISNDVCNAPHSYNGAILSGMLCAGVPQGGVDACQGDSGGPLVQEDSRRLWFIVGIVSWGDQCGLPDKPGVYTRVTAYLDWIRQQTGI
T4 sequence (Q9Y5Y6 whole entry): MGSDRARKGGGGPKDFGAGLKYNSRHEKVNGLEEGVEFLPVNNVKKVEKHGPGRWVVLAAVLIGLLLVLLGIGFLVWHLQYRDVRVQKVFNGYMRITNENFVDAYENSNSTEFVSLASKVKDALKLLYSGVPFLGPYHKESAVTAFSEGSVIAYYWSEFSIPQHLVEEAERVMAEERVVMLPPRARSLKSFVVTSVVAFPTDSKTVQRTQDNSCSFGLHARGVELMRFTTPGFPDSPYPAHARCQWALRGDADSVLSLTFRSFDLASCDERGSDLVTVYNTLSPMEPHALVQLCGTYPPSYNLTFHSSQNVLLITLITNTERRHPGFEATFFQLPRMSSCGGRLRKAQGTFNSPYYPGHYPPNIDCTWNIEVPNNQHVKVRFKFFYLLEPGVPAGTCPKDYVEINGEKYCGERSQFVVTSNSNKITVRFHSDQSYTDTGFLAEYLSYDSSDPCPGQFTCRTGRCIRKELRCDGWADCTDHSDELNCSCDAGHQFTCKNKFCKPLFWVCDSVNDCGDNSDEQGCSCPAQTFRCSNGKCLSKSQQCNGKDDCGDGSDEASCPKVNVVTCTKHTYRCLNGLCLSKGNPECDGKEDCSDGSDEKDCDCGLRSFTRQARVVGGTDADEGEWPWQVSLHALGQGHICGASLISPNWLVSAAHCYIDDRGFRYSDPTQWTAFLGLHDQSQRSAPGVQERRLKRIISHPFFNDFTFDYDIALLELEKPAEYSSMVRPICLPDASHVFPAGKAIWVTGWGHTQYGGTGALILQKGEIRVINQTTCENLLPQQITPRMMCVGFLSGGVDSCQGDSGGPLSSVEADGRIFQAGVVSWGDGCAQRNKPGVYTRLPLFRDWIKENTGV
T3 sequence (Q9Y337 23-293): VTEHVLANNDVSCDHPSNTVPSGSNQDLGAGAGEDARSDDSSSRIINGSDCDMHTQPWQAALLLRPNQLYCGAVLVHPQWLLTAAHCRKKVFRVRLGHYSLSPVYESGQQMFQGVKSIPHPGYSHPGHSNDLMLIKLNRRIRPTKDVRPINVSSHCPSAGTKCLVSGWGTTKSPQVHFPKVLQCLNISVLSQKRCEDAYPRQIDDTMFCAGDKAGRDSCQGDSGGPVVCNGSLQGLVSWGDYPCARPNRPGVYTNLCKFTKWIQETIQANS
T1 sequence (Q9BYE2 other isoform, or with tags, fused parts or gaps): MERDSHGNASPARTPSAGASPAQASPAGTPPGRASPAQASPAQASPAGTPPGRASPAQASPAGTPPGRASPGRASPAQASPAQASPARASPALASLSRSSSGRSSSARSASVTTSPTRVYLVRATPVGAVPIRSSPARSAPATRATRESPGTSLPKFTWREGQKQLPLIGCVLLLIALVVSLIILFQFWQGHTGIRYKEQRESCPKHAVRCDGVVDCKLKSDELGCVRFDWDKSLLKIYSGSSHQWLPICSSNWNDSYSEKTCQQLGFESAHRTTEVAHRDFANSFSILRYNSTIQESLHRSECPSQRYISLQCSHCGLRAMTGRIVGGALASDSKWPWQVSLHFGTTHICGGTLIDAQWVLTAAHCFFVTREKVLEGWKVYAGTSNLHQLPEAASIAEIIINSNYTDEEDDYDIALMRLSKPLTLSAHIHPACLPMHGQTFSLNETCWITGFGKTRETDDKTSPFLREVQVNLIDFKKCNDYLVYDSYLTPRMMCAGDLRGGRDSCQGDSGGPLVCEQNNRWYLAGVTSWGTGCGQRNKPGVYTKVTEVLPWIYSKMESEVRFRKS

O=C1c2c(O)c(=O)ccn2N([C@@H]2c3ccccc3SCc3c2ccc(F)c3F)[C@@H]2COCCN12 [Baloxavir acid]
IC50 [1, 6]: 10.3 ± 2 nM
IC50 [2, 7]: 1.6 ± 1 nM

CN(C)C(=O)COC(=O)Cc1ccc(OC(=O)c2ccc(NC(=N)N)cc2)cc1 [Camostat mesylate]
IC50 ([1]; Influenza B virus, Calu-3, 72 h, read-out: IC50, IBV (Ned05)): 125 nM
IC50 ([1]; Influenza B virus, Calu-3, Table S1, read-out: anti-viral IC50 (±SEM), IBV): 125 ± 33 nM
IC50 ([2]; Influenza A virus, Calu-3, 72 h, read-out: IC50, IAV H1N1 (Virg09)): 220 nM
IC50 ([2]; Influenza A virus, Calu-3, Table S1, read-out: anti-viral IC50 (±SEM), IAV H1N1): 220 ± 49 nM
IC50 ([3]; Influenza A virus, H3N2, Calu-3, 72 h, read-out: IC50, IAV H3N2 (Vict11)): 50 nM
IC50 ([3]; Influenza A virus, H3N2, Calu-3, Table S1, read-out: anti-viral IC50 (±SEM), IAV H3N2): 50.2 ± 16 nM
IC50 (SARS-CoV-2 Omicron BA.1; Severe acute respiratory syndrome coronavirus 2, Caco-2, 24 h, read-out: IC50, SARS-CoV-2 Omicron BA.1): 68 nM
IC50 (SARS-CoV-2 Omicron BA.1; Severe acute respiratory syndrome coronavirus 2, Caco-2, read-out: anti-viral IC50 (±SEM), SARS-CoV-2 BA.1): 68.1 ± 5 nM
IC50 (TMPRSS13): 93 nM
plasma half-life [4]: < 2 h
IC50 (TMPRSS11D): 194 nM
IC50 (Kallikrein 5): 536 nM
IC50 (TMPRSS14 (Matriptase)): 23 nM
IC50 (hCoV-NL63; Human coronavirus NL63, Caco-2, 72 h, read-out: IC50, hCoV-NL63 replication): 110 nM
IC50 (hCoV-NL63; [8]): 110 ± 24 nM

N=C(N)c1ccc2cc(OC(=O)c3ccc(N=C(N)N)cc3)ccc2c1 [Nafamostat mesylate]
half-life [4]: 8 min

CC(C)(C)[C@H](NC(=O)C(F)(F)F)C(=O)N1C[C@H]2[C@@H]([C@H]1C(=O)N[C@H](C#N)C[C@@H]1CCNC1=O)C2(C)C [Nirmatrelvir]
IC50 (hCoV-NL63; [8]): 1260 ± 64 nM

Aprotinin
IC50 [1, 6]: 2790 ± 871 nM
IC50 [2, 7]: 2250 ± 886 nM
IC50 ([3]; Table S1, read-out: anti-viral IC50 (±SEM), IAV H3N2): 1460 ± 693 nM

CNLPIVRGPCRAFIQLWAFDAVKGKCVLFPYGGCQGNGNKFYSEKECREYC (disulfide 1-51, 10-34, 26-47) [Bikunin KD 2]
effect on VSV-G-mediated pseudoparticle entry [5]: without affecting VSV‐G‐driven entry

B1: Bikunin (protein, UniProt P02760 206-352, looked up)
Inter-alpha-trypsin inhibitor …: AVLPQEEEGSGGGQLVTEVTKKEDSCQLGYSAGPCMGMTSRYFYNGTSMACETFQYGGCMGNGNNFVTEKECLQTCRTVAACNLPIVRGPCRAFIQLWAFDAVKGKCVLFPYGGCQGNGNKFYSEKECREYCGVPGDGDEELLRFSN
modifications: Inter-alpha-trypsin inhibitor light chain
effect on VSV-G-mediated pseudoparticle entry [5]: non‐specific effects against VSV‐G‐mediated entry
